Source: patent US20080114038A1 (priority 2004, published 2008)

Columns and labels:
[1] = biological target: COX-1 (Homo sapiens, UniProt P23219); settings: read-out: concentration responsible for the inhibition of 50% of the production of TXA2 (IC50); human whole blood without anticoagulant, 37° C., 1 hour, serum
[2] = system: edema of the paw induced by carragenine; assay: Edema of rat paws induced by carragenine; type: in vivo, male rats of the Wistar type; settings: i.p. 30 minutes before carragenine 1%; molar dose equivalent to diclofenac; paw volume up to 4 hours
Procedure: For the performance of this one test, animals, such as, for example, male rats of the Wistar type were used, which weighed between 150-180 g. These rats were acquired from CEMIB/UNICAMP.
Five rats were treated with the diclofenac, five rats with the modified diclofenac and five rats with the DMSO vehicle.
After a period of approximately 30 minutes, the animals were inoculated with an intraplantary injection of approximately 0.1 mL of a solution of carragenine 1% in saline solution, at the right hind paw, while the contralateral paw received the same volume but only of the saline solution.
The quantification of the volume of the paw was performed by means of an adequate instrument, such as, for example a pletismometer. The volume of the paws was checked before the administration of the carragenine (T0) and after 30 minutes, 1, 2, 3 and 4 hours. The T0 value was subtracted from the other values arrived at.

Sequence of COX-1 (P23219 24-599): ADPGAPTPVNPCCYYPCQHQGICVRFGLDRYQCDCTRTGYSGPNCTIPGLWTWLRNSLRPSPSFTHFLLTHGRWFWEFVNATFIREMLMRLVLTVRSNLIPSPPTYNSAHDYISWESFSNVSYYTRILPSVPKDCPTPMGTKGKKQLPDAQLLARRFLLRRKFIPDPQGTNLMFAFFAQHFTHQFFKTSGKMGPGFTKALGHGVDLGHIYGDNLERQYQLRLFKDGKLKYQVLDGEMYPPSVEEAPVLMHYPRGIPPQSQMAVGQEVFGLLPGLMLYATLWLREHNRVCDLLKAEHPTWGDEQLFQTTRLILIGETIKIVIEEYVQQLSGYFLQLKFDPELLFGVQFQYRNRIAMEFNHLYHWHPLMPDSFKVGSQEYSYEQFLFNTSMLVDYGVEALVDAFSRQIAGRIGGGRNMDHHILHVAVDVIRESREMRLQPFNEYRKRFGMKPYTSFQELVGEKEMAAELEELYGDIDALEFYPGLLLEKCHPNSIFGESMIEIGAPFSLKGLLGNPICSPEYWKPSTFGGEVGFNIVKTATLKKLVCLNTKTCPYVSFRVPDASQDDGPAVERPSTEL

In the case of `O=C(Cc1ccccc1Nc1c(Cl)cccc1Cl)OCc1ccc2c(c1)no[n+]2[O-]` [modified diclofenac, [2-(2,6-dichloro-phenylamino)-phenyl]-acetic acid 1-oxy-benzo[1,2,5]oxadiazol-5-ylmethyl ester], the IC50 [1] is reported as ~40.4 µM and the “inhibition of the edema of the paw induced by carragenine (paw volume, FIG. 1)” value [2] is reported as “capable of inhibiting the edema of the paw induced by carragenine in the same way that the standard diclofenac”.
